Results published in ChEMBL document CHEMBL1143427, “Interactions of ceftobiprole with beta-lactamases from molecular classes A to D” (Antimicrob Agents Chemother, 2007).

Experiments:
[1] = target: Beta-lactamase TEM (Escherichia coli) (UniProt P62593); test: Ratio of Kcat to Km of Escherichia coli TEM1 assessed as drug hydrolysis by spectrophotometry relative to cephaloridine; parameters: scale not given: the % may be the effect or the level left
[2] = target: T1, Beta-lactamase SHV-1 (Klebsiella pneumoniae) (UniProt P0AD64); test: Activity of Klebsiella pneumoniae SHV1 assessed as drug hydrolysis by spectrophotometry relative to cephaloridine; parameters: scale not given: the % may be the effect or the level left
T1 sequence (whole entry): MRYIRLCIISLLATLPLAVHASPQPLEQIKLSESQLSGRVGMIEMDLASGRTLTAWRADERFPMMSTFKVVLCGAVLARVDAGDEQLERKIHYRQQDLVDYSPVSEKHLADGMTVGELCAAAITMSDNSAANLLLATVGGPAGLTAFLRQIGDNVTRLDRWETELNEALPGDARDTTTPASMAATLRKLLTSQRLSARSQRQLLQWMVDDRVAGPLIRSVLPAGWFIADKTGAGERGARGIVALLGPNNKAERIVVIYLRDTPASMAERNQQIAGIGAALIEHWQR

[3] = target: T1, Beta-lactamase SHV-1 (Klebsiella pneumoniae); test: Ratio of Kcat to Km of Klebsiella pneumoniae SHV1 assessed as drug hydrolysis by spectrophotometry relative to cephaloridine; parameters: scale not given: the % may be the effect or the level left
[4] = target: Beta-lactamase CTX-M (Escherichia coli) (UniProt Q9EXV5); test: Activity of Escherichia coli CTX-M-15 assessed as drug hydrolysis by spectrophotometry relative to cephaloridine; parameters: scale not given: the % may be the effect or the level left
[5] = target: Beta-lactamase CTX-M (Escherichia coli) (UniProt Q9EXV5); test: Ratio of Kcat to Km of Escherichia coli CTX-M-15 assessed as drug hydrolysis by spectrophotometry relative to cephaloridine; parameters: scale not given: the % may be the effect or the level left
[6] = target: T2, Beta-lactamase (Klebsiella oxytoca) (UniProt Q8RT60); test: Activity of Klebsiella oxytoca beta-lactamase K1 assessed as drug hydrolysis by spectrophotometry relative to cephaloridine; parameters: scale not given: the % may be the effect or the level left
T2 sequence (whole entry): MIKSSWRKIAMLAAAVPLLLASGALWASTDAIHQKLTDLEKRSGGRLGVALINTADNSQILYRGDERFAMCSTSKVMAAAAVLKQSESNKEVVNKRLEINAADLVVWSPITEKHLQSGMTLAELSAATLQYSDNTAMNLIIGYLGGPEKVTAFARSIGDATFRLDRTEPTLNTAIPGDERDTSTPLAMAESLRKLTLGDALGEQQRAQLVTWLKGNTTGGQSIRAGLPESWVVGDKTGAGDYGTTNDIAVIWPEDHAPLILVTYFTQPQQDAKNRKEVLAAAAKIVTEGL

[7] = target: T2, Beta-lactamase (Klebsiella oxytoca); test: Ratio of Kcat to Km of Klebsiella oxytoca beta-lactamase K1 assessed as drug hydrolysis by spectrophotometry relative to cephaloridine; parameters: scale not given: the % may be the effect or the level left
[8] = tested on: Klebsiella pneumoniae; test: Activity of Klebsiella pneumoniae TEM26 assessed as drug hydrolysis by spectrophotometry
[9] = tested on: Klebsiella pneumoniae; test: Activity of Klebsiella pneumoniae TEM26 assessed as drug hydrolysis by spectrophotometry relative to cephaloridine; parameters: scale not given: the % may be the effect or the level left
[10] = tested on: Klebsiella pneumoniae; test: Ratio of Kcat to Km of Klebsiella pneumoniae TEM26 assessed as drug hydrolysis by spectrophotometry
[11] = tested on: Klebsiella pneumoniae; test: Ratio of Kcat to Km of Klebsiella pneumoniae TEM26 assessed as drug hydrolysis by spectrophotometry relative to cephaloridine; parameters: scale not given: the % may be the effect or the level left
[12] = target: T3, Carbapenem-hydrolyzing beta-lactamase SME-3 (Serratia marcescens) (UniProt Q6PRG8); test: Activity of Serratia marcescens SME3 assessed as drug hydrolysis by spectrophotometry relative to cephaloridine; parameters: scale not given: the % may be the effect or the level left
T3 sequence (whole entry): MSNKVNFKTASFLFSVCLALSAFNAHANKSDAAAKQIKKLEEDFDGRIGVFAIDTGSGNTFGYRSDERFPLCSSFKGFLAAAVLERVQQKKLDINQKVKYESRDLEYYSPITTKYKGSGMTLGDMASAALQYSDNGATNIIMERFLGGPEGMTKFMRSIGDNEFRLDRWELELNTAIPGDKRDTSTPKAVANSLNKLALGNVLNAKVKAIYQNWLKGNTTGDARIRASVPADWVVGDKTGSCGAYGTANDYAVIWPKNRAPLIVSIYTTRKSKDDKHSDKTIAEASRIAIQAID

[13] = target: T3, Carbapenem-hydrolyzing beta-lactamase SME-3 (Serratia marcescens); test: Ratio of Kcat to Km of Serratia marcescens SME3 assessed as drug hydrolysis by spectrophotometry relative to cephaloridine; parameters: scale not given: the % may be the effect or the level left
[14] = target: Beta-lactamase VIM-2 (Pseudomonas aeruginosa) (UniProt Q9K2N0); test: Activity of Pseudomonas aeruginosa VIM2 assessed as drug hydrolysis by spectrophotometry relative to cephaloridine; parameters: scale not given: the % may be the effect or the level left
[15] = target: Metallo beta-lactamase (Pseudomonas aeruginosa) (UniProt Q6TUJ4); test: Ratio of Kcat to Km of Pseudomonas aeruginosa IMP1 assessed as drug hydrolysis by spectrophotometry relative to cephaloridine; parameters: scale not given: the % may be the effect or the level left
Metallo beta-lactamase (Pseudomonas aeruginosa), sequence (Q6TUJ4 as listed by the source): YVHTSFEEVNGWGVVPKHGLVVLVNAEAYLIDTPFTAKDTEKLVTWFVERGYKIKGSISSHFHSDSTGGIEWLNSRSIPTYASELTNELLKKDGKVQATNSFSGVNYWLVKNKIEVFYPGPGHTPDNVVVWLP

[16] = target: Beta-lactamase VIM-2 (Pseudomonas aeruginosa) (UniProt Q9K2N0); test: Ratio of Kcat to Km of Pseudomonas aeruginosa VIM2 assessed as drug hydrolysis by spectrophotometry relative to cephaloridine; parameters: scale not given: the % may be the effect or the level left
[17] = target: Beta-lactamase (Morganella morganii) (UniProt P94958); test: Activity of Morganella morganii AmpC assessed as drug hydrolysis by spectrophotometry relative to cephaloridine; parameters: scale not given: the % may be the effect or the level left
[18] = target: Beta-lactamase TEM (Escherichia coli) (UniProt P62593); test: Activity of Escherichia coli TEM1 assessed as drug hydrolysis by spectrophotometry relative to cephaloridine; parameters: scale not given: the % may be the effect or the level left
[19] = target: Beta-lactamase (Staphylococcus aureus) (UniProt P00807); test: Ratio of Kcat to Km of Staphylococcus aureus betalactamase PC1 assessed as drug hydrolysis by spectrophotometry relative to cephaloridine; parameters: scale not given: the % may be the effect or the level left
Beta-lactamase (Staphylococcus aureus), sequence (P00807 whole entry): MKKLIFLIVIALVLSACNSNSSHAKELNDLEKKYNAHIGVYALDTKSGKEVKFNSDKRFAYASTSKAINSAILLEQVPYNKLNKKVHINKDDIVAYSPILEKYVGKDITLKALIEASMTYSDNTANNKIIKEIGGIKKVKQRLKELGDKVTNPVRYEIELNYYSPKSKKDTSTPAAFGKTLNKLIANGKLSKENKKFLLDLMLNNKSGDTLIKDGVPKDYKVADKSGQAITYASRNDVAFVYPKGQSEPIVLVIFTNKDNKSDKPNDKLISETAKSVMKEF

[20] = target: Beta-lactamase (Staphylococcus aureus) (UniProt P00807); test: Activity of Staphylococcus aureus betalactamase PC1 assessed as drug hydrolysis by spectrophotometry relative to cephaloridine; parameters: scale not given: the % may be the effect or the level left
[21] = target: Beta-lactamase (Morganella morganii) (UniProt P94958); test: Ratio of Kcat to Km of Morganella morganii AmpC assessed as drug hydrolysis by spectrophotometry relative to cephaloridine; parameters: scale not given: the % may be the effect or the level left
[22] = target: T4, Beta-lactamase (Providencia stuartii) (UniProt O69773); test: Activity of Providencia stuartii AmpC assessed as drug hydrolysis by spectrophotometry relative to cephaloridine; parameters: scale not given: the % may be the effect or the level left
T4 sequence (whole entry): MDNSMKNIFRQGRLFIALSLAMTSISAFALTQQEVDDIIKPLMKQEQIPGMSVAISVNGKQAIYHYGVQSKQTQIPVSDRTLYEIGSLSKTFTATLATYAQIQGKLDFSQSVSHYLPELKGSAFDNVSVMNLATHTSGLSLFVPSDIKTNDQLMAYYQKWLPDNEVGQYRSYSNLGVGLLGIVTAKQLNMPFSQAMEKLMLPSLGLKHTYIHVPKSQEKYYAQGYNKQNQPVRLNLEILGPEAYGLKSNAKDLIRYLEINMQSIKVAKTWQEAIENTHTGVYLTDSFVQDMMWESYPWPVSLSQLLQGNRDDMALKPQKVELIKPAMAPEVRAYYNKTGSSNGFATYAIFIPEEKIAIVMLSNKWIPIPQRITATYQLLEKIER

[23] = target: T4, Beta-lactamase (Providencia stuartii); test: Ratio of Kcat to Km of Providencia stuartii AmpC assessed as drug hydrolysis by spectrophotometry relative to cephaloridine; parameters: scale not given: the % may be the effect or the level left
[24] = target: Beta-lactamase (Pseudomonas aeruginosa (strain ATCC 15692 / PAO1 / 1C / PRS 101 / LMG12228)) (UniProt P24735); test: Activity of Pseudomonas aeruginosa 4352 AmpC assessed as drug hydrolysis by spectrophotometry relative to cephaloridine; parameters: scale not given: the % may be the effect or the level left
Beta-lactamase (Pseudomonas aeruginosa (strain ATCC 15692 / PAO1 / 1C / PRS 101 / LMG12228)), sequence (P24735 27-397 limits assumed): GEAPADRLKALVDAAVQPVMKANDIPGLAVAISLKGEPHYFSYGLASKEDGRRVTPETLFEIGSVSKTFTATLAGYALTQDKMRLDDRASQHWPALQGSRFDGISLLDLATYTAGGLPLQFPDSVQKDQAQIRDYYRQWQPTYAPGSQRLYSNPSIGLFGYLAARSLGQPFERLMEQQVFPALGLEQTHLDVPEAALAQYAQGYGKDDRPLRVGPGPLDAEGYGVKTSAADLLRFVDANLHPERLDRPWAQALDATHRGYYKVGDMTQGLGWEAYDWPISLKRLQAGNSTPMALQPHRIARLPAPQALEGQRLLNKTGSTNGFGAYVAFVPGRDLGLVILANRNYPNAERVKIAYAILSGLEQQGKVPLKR

[25] = target: Beta-lactamase (Pseudomonas aeruginosa (strain ATCC 15692 / PAO1 / 1C / PRS 101 / LMG12228)) (UniProt P24735); test: Ratio of Kcat to Km of Pseudomonas aeruginosa 4352 AmpC assessed as drug hydrolysis by spectrophotometry relative to cephaloridine; parameters: scale not given: the % may be the effect or the level left
[26] = target: Beta-lactamase (Pseudomonas aeruginosa (strain ATCC 15692 / PAO1 / 1C / PRS 101 / LMG12228)) (UniProt P24735); test: Activity of Pseudomonas aeruginosa 18SH AmpC assessed as drug hydrolysis by spectrophotometry relative to cephaloridine; parameters: scale not given: the % may be the effect or the level left
[27] = target: Beta-lactamase (Pseudomonas aeruginosa (strain ATCC 15692 / PAO1 / 1C / PRS 101 / LMG12228)) (UniProt P24735); test: Ratio of Kcat to Km of Pseudomonas aeruginosa 18SH AmpC assessed as drug hydrolysis by spectrophotometry relative to cephaloridine; parameters: scale not given: the % may be the effect or the level left
[28] = target: Beta-lactamase (Pseudomonas aeruginosa (strain ATCC 15692 / PAO1 / 1C / PRS 101 / LMG12228)) (UniProt P24735); test: Activity of Pseudomonas aeruginosa MK-1184 AmpC assessed as drug hydrolysis by spectrophotometry relative to cephaloridine; parameters: scale not given: the % may be the effect or the level left
[29] = target: Beta-lactamase (Pseudomonas aeruginosa (strain ATCC 15692 / PAO1 / 1C / PRS 101 / LMG12228)) (UniProt P24735); test: Ratio of Kcat to Km of Pseudomonas aeruginosa MK-1184 AmpC assessed as drug hydrolysis by spectrophotometry relative to cephaloridine; parameters: scale not given: the % may be the effect or the level left
[30] = target: Beta-lactamase (Serratia marcescens) (UniProt P18539); test: Activity of Serratia marcescens AmpC assessed as drug hydrolysis by spectrophotometry relative to cephaloridine; parameters: scale not given: the % may be the effect or the level left
Beta-lactamase (Serratia marcescens), sequence (P18539 whole entry): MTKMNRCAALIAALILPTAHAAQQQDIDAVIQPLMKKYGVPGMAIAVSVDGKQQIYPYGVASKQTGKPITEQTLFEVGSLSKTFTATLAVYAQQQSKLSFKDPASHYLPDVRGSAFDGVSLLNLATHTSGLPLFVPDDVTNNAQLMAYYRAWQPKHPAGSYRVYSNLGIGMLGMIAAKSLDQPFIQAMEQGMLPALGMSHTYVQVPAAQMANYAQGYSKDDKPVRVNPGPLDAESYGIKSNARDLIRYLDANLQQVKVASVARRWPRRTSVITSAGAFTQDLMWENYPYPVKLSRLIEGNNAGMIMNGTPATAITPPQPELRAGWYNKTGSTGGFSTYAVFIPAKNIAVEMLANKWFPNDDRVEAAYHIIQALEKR

[31] = target: Beta-lactamase (Serratia marcescens) (UniProt P18539); test: Ratio of Kcat to Km of Serratia marcescens AmpC assessed as drug hydrolysis by spectrophotometry relative to cephaloridine; parameters: scale not given: the % may be the effect or the level left
[32] = target: Beta-lactamase (Pseudomonas aeruginosa (strain ATCC 15692 / PAO1 / 1C / PRS 101 / LMG12228)) (UniProt P24735); test: Activity of Pseudomonas aeruginosa AmpC assessed as drug hydrolysis by spectrophotometry relative to cephaloridine; parameters: scale not given: the % may be the effect or the level left
[33] = target: Beta-lactamase (Pseudomonas aeruginosa (strain ATCC 15692 / PAO1 / 1C / PRS 101 / LMG12228)) (UniProt P24735); test: Ratio of Kcat to Km of Pseudomonas aeruginosa AmpC assessed as drug hydrolysis by spectrophotometry relative to cephaloridine; parameters: scale not given: the % may be the effect or the level left

Beta-lactamase TEM (Escherichia coli), sequence (P62593 whole entry): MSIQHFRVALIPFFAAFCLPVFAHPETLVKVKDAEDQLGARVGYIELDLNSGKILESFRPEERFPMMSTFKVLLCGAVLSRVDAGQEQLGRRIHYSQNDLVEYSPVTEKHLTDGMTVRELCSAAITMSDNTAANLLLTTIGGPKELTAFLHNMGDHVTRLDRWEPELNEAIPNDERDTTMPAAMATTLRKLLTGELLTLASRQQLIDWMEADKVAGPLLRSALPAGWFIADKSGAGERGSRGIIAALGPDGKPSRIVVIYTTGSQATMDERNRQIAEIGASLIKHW

Row | Compound | Activity [1] [%] | Activity [2] [%] | Activity [3] [%] | Activity [4] [%] | Activity [5] [%] | Activity [6] [%] | Activity [7] [%] | Km [8] [µM] | kcat [8] [s⁻¹] | Activity [9] [%] | kcat/Km [10] [M⁻¹ s⁻¹] | Activity [11] [%] | Activity [12] [%] | Activity [13] [%] | Activity [14] [%] | Activity [15] [%] | Activity [16] [%] | Activity [17] [%] | Activity [18] [%] | Activity [19] [%] | further results
1 | CC1(C)S[C@@H]2[C@H](NC(=O)Cc3ccccc3)C(=O)N2[C@H]1C(=O)O | 5600 | 260 | 2600 | 25 | 110 | 160 | 400 | 5 | 76 | 210 | 1.5e+07 | 2700 | 0.73 | 130 | 61 | 750 | 570 | 26 | 122 | 1.5e+06 | Activity [20]: 46000%; Activity [21]: 860%; Activity [22]: 0.62%; Activity [23]: 43%; Activity [24]: 37%; Activity [25]: 1100%; Activity [26]: 35%; Activity [27]: 61%; Activity [28]: 91%; Activity [29]: 670%; Activity [30]: 0.95%; Activity [31]: 290%; Activity [32]: 540%; Activity [33]: 14000%
2 | Nc1nc(/C(=N/O)C(=O)N[C@@H]2C(=O)N3C(C(=O)O)=C(/C=C4\CCN([C@@H]5CCNC5)C4=O)CS[C@H]23)ns1 | 1.6 | 6 | 7.4 | 140 | 290 | 33 | 100 | 63 | 6.9 | 19 | 110000 | 20 | 0.49 | 0.73 | 13 | 990 | 380 | < 0.0064 | 0.9 | 24 | Activity [20]: 17%; Activity [21]: < 0.071%; Activity [22]: 0.03%; Activity [23]: 0.11%; Activity [24]: < 0.024%; Activity [25]: 0.14%; Activity [26]: 0.028%; Activity [27]: 0.71%; Activity [28]: 2%; Activity [29]: 1%; Activity [30]: < 0.14%; Activity [31]: < 0.27%; Activity [32]: 1400%; Activity [33]: 9900%
3 | CC(C)(O/N=C(\C(=O)N[C@@H]1C(=O)N2C(C(=O)[O-])=C(C[n+]3ccccc3)CS[C@H]12)c1csc(N)n1)C(=O)O | 0.00067 | 0.0026 | 0.00084 | 2.3 | 0.37 | 0.0026 | 0.0018 | 130 | 95 | 260 | 730000 | 130 | 0.013 | 0.031 | 0.19 | 120 | 1.7 | < 0.14 | 0.00023 | 0.92 | Activity [20]: 0.25%; Activity [21]: < 2.5%; Activity [22]: 0.036%; Activity [23]: 1.3%; Activity [24]: < 0.01%; Activity [25]: 0.42%; Activity [26]: < 0.1%; Activity [27]: 0.83%; Activity [28]: 3.1%; Activity [29]: 5.3%; Activity [30]: < 0.0025%; Activity [31]: < 0.0028%; Activity [32]: < 0.059%
4 | O=C(Cc1cccs1)N[C@@H]1C(=O)N2C(C(=O)[O-])=C(C[n+]3ccccc3)CS[C@H]12 |  |  |  |  |  |  |  | 66 | 37 |  | 560000 |  |  |  |  |  |  |  |  |  | 
